Laboratory results published in publication PMC9147274 (Pharmaceuticals, 2022).

Key:
[1] = Cytotoxicity toward MRC-5, MTT assay; assay type: cell-based; conditions: human, MRC-5 cells, MRC-5 normal cells
Procedure: (§1) DMSO was used as vehicle control. […] All experiments were performed in triplicate. […] Cells were exposed for 48 h.

[2] = tested on: A549; assay: Cytotoxicity toward A549, MTT assay; assay type: cell-based, human; conditions: for IC50: Homo sapiens, A549, MTT, 48 h
Procedure: as §1
(§2) Table S1 The cytotoxicity of triazole-cored derivatives toward various human lung carcinoma cell lines A549, Thai human cholangiocarcinoma cells HuCCA-1, T-cell acute lymphoblastic leukemia MOLT-3, and acute promyelocytic leukemia HL-60. The inhibitory activities were indicated as IC50 in micromolar scale (µM). The calculated selectivity indices (SI) were reported in square brackets.
(§3) Cancer Cell lines, IC50 (µM), [SI]

[3] = tested on: HuCCA-1; assay: Cytotoxicity toward HuCCA-1, MTT assay; assay type: cell-based, human; conditions: for IC50: Homo sapiens, HuCC-A1, HuCCA-1, MTT, 48 h
Procedure: as §1, §2, §3

[4] = tested on: MOLT-3; assay: Cytotoxicity toward MOLT-3, XTT assay; assay type: cell-based, human; conditions: for IC50: Homo sapiens, MOLT-3, XTT, 48 h; for SI (MOLT-3): (IC50 for MRC-5)/(IC50 for MOLT-3)
Procedure: as §1, §2, §3

[5] = tested on: HL-60; assay: Cytotoxicity toward HL-60, XTT assay; assay type: cell-based, human; conditions: for IC50: Homo sapiens, HL-60, XTT, 48 h; for SI (HL-60): (IC50 for MRC-5)/(IC50 for HL-60)
Procedure: as §1, §2, §3

[6] = tested on: HepG2; assay: Cytotoxicity toward HepG2, MTT assay; conditions: for Cytotoxicity HepG2 Cell Viability at 25 µM: HepG2, 25 µM, MTT; for Cytotoxicity HepG2 Cell Viability at 25 µM / IC50: 72 h; for Selectivity index (SI): IC50 MRC-5 / IC50 HepG2; for IC50: read-out: Cytotoxicity HepG2 IC50, HepG2, MTT
Procedure: DMSO was used as vehicle control. […] All experiments were performed in triplicate. Data were expressed as the IC50 ± SD. […] Cells were exposed for 48 h.

[7] = tested on: HepG2 cells; assay: Cell-cycle analysis (propidium iodide, flow cytometry); assay type: cell-based, human; conditions: HepG2, 2 µM, 72 h
Procedure: The concentration of DMSO was kept at 0.5% v/v for all conditions. Cells were washed with PBS before they were harvested; 1 × 10^5 Cells were collected and fixed with 70% ice-cold ethanol, and then washed twice with ice-cold PBS. Afterward, the cells were treated with 100 g/mL of DNase-free RNase A (Sigma-Aldrich, St. Louis, MO, USA) in PBS containing 0.1% v/v Triton-X 100 (Sigma-Aldrich, St. Louis, MO, USA) for 5 min at room temperature and then stained with 20 g/mL propidium iodide (Life Technologies, Carlsbad, CA, USA) in PBS containing 0.1% v/v Triton-X 100 for 15 min at room temperature while protected from light. Cell-cycle distribution was then analyzed with a flow cytometer (Attune NxT, Thermo Fischer Scientific, Waltham, MA, USA). Data were analyzed with Attune NxT Software (Thermo Fischer Scientific, Waltham, MA, USA). All experiments were performed in triplicate. Student’s t-test was used for statistical analysis; p < 0.05 was considered statistically significant [96].

[8] = tested on: HepG2 cells; assay: Detection of apoptosis (Muse Annexin V & Dead Cell Kit); assay type: cell-based, human; conditions: 48 h; for average percentage of apoptotic cells (total, early and late apoptosis): untreated 22.35 ± 0.07%
Procedure: Based on annexin V reactivity and the intensity of the 7-AAD fluorescence, cells can be classified into four categories: dead, live, early apoptosis, and late apoptosis. […] The detection of apoptosis was performed by the Muse® Annexin V & Dead Cell Kit according to the manufacturer’s protocol (Millipore, Billerica, MA, USA). […] An amount of 100 µL of HepG2 cells in suspension and 100 µL of Muse Annexin V & Dead Cell reagent were added to a 1.5 mL tube. The apoptosis was measured using the Muse cell analyzer and Muse analysis software (Millipore, Billerica, MA, USA). Cells were classified into four groups: live (Annexin V− and 7-AAD−), early apoptosis (Annexin V+ and 7-AAD−), late apoptosis (Annexin V+ and 7-AAD+), and dead or necrotic (Annexin V− and 7-AAD+). The apoptosis experiment was performed in duplicate.

[9] = cited from earlier work
[10] = tested on: HepG2 cells; assay: Cell morphology by light microscopy; conditions: 48 h, 2.5-10.0 µM

Structure (SMILES) | IC50 at 48 h [1] [µM] | IC50 [2] [µM] | IC50 [3] [µM] | IC50 [4] [µM] | IC50 [5] [µM] | also measured
O=C(NCc1cn(-c2ccccc2)nn1)Nc1ccc(Cl)c(C(F)(F)F)c1 [Compound 2a] | > 100 | > 100 | > 100 | > 100 | > 100 | 
O=C(NCc1cn(-c2ccccc2F)nn1)Nc1ccc(Cl)c(C(F)(F)F)c1 [Compound 2b, 1-(4-chloro-3-(trifluoromethyl)phenyl)-3-((1-(2-fluorophenyl)-1H-1,2,3-triazol-4-yl)methyl)urea] |  |  |  |  |  | melting point: 168 to 169 °C
O=C(NCc1cn(-c2ccccc2F)nn1)Nc1ccc(Cl)c(C(F)(F)F)c1 [Compound 2b] | 73.5 ± 9.14 | 77.3 ± 1.76 | 69.2 ± 19.2 | 25.3 ± 1.38 | 40.6 ± 4.64 | 
O=C(NCc1cn(-c2cccc(F)c2)nn1)Nc1ccc(Cl)c(C(F)(F)F)c1 [Compound 2c] | 61.6 ± 3.63 | 69.4 ± 2.44 | 44.9 ± 3.84 | 18.4 ± 0.36 | 34.1 ± 11.3 | 
O=C(NCc1cn(-c2ccc(F)cc2)nn1)Nc1ccc(Cl)c(C(F)(F)F)c1 [Compound 2d] | 59.3 ± 1.96 | 57.4 ± 8.36 | 55.4 ± 6.49 | 20.5 ± 1.23 | 35 ± 9.04 | 
O=C(NCc1cn(-c2ccccc2Cl)nn1)Nc1ccc(Cl)c(C(F)(F)F)c1 [Compound 2e] | 61.4 ± 3.51 |  |  |  | 52.1 ± 13.9 | 
O=C(NCc1cn(-c2cccc(Cl)c2)nn1)Nc1ccc(Cl)c(C(F)(F)F)c1 [Compound 2f] | 63.8 ± 3.53 |  |  |  | 37.5 ± 2.23 | 
O=C(NCc1cn(-c2ccc(Cl)cc2)nn1)Nc1ccc(Cl)c(C(F)(F)F)c1 [Compound 2g] | 14.6 ± 4.17 | 83 ± 2.7 | 33.6 ± 1.83 | > 100 | > 100 | 
O=C(NCc1cn(-c2ccccc2Br)nn1)Nc1ccc(Cl)c(C(F)(F)F)c1 [Compound 2h] | 52.9 ± 3.1 |  |  |  | 37.7 ± 3.88 | 
O=C(NCc1cn(-c2cccc(Br)c2)nn1)Nc1ccc(Cl)c(C(F)(F)F)c1 [Compound 2i] | 53 ± 3.31 |  |  |  | 35.75 ± 0.34 | 
O=C(NCc1cn(-c2ccc(Br)cc2)nn1)Nc1ccc(Cl)c(C(F)(F)F)c1 [Compound 2j] | 60.7 ± 1.88 | 33.8 ± 2.29 | 10.8 ± 0.36 | 53.4 ± 24.3 | 76 ± 22.6 | 
O=C(NCc1cn(-c2ccccc2I)nn1)Nc1ccc(Cl)c(C(F)(F)F)c1 [Compound 2k] | 49.1 ± 2.95 |  |  |  | 37.4 ± 2.36 | 
O=C(NCc1cn(-c2cccc(I)c2)nn1)Nc1ccc(Cl)c(C(F)(F)F)c1 [Compound 2l] | 49.2 ± 2.13 |  |  |  | 33.2 ± 0.58 | 
O=C(NCc1cn(-c2ccc(I)cc2)nn1)Nc1ccc(Cl)c(C(F)(F)F)c1 [Compound 2m] | 49.9 ± 6.61 |  |  | 29.9 ± 1.51 | 49.8 ± 7.19 | 
O=C(NCc1cn(-c2ccccc2O)nn1)Nc1ccc(Cl)c(C(F)(F)F)c1 [Compound 2n] |  |  |  | 39.4 ± 3.52 | 51.1 ± 1.77 | 
O=C(NCc1cn(-c2cccc(O)c2)nn1)Nc1ccc(Cl)c(C(F)(F)F)c1 [Compound 2o] |  |  |  | 28.3 ± 4.51 | 39.2 ± 2.72 | 
O=C(NCc1cn(-c2ccc(O)cc2)nn1)Nc1ccc(Cl)c(C(F)(F)F)c1 [Compound 2p] | 69.6 ± 5.66 | 85.9 ± 7.24 | 87.43 ± 0.79 | 22.5 ± 1.85 | 32.9 ± 7.77 | 
COc1ccccc1-n1cc(CNC(=O)Nc2ccc(Cl)c(C(F)(F)F)c2)nn1 [Compound 2q] | 68 ± 5.14 |  |  |  | 42.4 ± 2.18 | 
COc1cccc(-n2cc(CNC(=O)Nc3ccc(Cl)c(C(F)(F)F)c3)nn2)c1 [Compound 2r] | 76.1 ± 9.18 |  |  |  | 42.8 ± 1.95 | 
COc1ccc(-n2cc(CNC(=O)Nc3ccc(Cl)c(C(F)(F)F)c3)nn2)cc1 [Compound 2s] | 21.2 ± 2.51 |  |  |  | > 100 | 
Cc1ccccc1-n1cc(CNC(=O)Nc2ccc(Cl)c(C(F)(F)F)c2)nn1 [Compound 2t] | 61.7 ± 3.22 |  |  |  | 45 ± 4.03 | 
CC(=O)Nc1ccc(-n2cc(CNC(=O)Nc3ccc(Cl)c(C(F)(F)F)c3)nn2)cc1 [Compound 2u, N-(4-(4-((3-(4-chloro-3-(trifluoromethyl)phenyl)ureido)methyl)-1H-1,2,3-triazol-1-yl)phenyl)acetamide] |  |  |  |  |  | melting point: 238 to 239 °C
Cc1cccc(-n2cc(CNC(=O)Nc3ccc(Cl)c(C(F)(F)F)c3)nn2)c1 [Compound 2u] |  |  |  |  | > 100 | 
Cc1ccc(-n2cc(CNC(=O)Nc3ccc(Cl)c(C(F)(F)F)c3)nn2)cc1 [Compound 2v] | 99.9 ± 0.9 |  |  | 91.1 ± 1.66 | > 100 | 
O=C(NCc1cn(-c2ccccc2C(F)(F)F)nn1)Nc1ccc(Cl)c(C(F)(F)F)c1 [Compound 2w] | 58.8 ± 0.39 |  |  | 30.6 ± 0.8 | 34.5 ± 0.73 | 
O=C(NCc1cn(-c2cccc(C(F)(F)F)c2)nn1)Nc1ccc(Cl)c(C(F)(F)F)c1 [Compound 2x, 1-(4-chloro-3-(trifluoromethyl)phenyl)-3-((1-(3-(trifluoromethyl)phenyl)-1H-1,2,3-triazol-4-yl)methyl)urea] | 63.2 ± 1.57 |  |  | 27.8 ± 4.56 | 28.8 ± 7.46 | SI (MOLT-3) [4]: 2.28; SI (HL-60) [5]: 2.19; melting point: 152 to 153 °C; Cytotoxicity HepG2 Cell Viability at 25 µM [6]: 81%
O=C(NCc1cn(-c2ccc(C(F)(F)F)cc2)nn1)Nc1ccc(Cl)c(C(F)(F)F)c1 [Compound 2y, 1-(4-chloro-3-(trifluoromethyl)phenyl)-3-((1-(4-(trifluoromethyl)phenyl)-1H-1,2,3-triazol-4-yl)methyl)urea] | 58.6 ± 3.51 |  |  | 18.1 ± 0.45 | 19.4 ± 0.5 | SI (MOLT-3) [4]: 3.23; SI (HL-60) [5]: 3.02; melting point: 199 to 200 °C; Selectivity index (SI) [6]: 9.81; IC50 [6]: 5.97 ± 2.14 µM
N#Cc1ccccc1-n1cc(CNC(=O)Nc2ccc(Cl)c(C(F)(F)F)c2)nn1 [Compound 2z, 1-(4-chloro-3-(trifluoromethyl)phenyl)-3-((1-(2-cyanophenyl)-1H-1,2,3-triazol-4-yl)methyl)urea] | 59.7 ± 6.63 |  |  |  | 56.4 ± 10.9 | SI (HL-60) [5]: 1.06; melting point: 162 to 163 °C; Cytotoxicity HepG2 Cell Viability at 25 µM [6]: 66%
COc1cccc2c1C(=O)c1c(O)c3c(c(O)c1C2=O)C[C@@](O)(C(=O)CO)C[C@@H]3O[C@H]1C[C@H](N)[C@H](O)[C@H](C)O1 [Doxorubicin, reference compound] | 2.26 | 0.47 ± 0.02 | 1.21 ± 0.04 | 0.01 | 0.12 ± 0.02 | SI (A549) ([2]; (IC50 for MRC-5)/(IC50 for A549)): 4.81; SI (HuCCA-1) ([3]; (IC50 for MRC-5)/(IC50 for HuCCA-1)): 1.87; SI (MOLT-3) [4]: 226; SI (HL-60) [5]: 18.83; Selectivity index (SI) [6]: 3.83; IC50 [6]: 0.59 ± 0.1 µM
CNC(=O)c1cc(Oc2ccc(NC(=O)Nc3ccc(Cl)c(C(F)(F)F)c3)cc2)ccn1 [Sorafenib] | 19.7 ± 1.68 | 19.65 ± 0.01 | 33.2 ± 1.45 |  | 5.35 ± 0.38 | Effect on cell cycle [7]: induced S and G2/M phase cell-cycle arrest; Late Apop./Dead (late stage apoptotic cells) ([8]; HepG2, 2.5 µM): 7.60%; average percentage of apoptotic cells (total, early and late apoptosis) ([8]; HepG2, 2.5 µM): 24.55 ± 0.28%; Late Apop./Dead (late stage apoptotic cells) ([8]; HepG2, 10.0 µM): 13.65%; average percentage of apoptotic cells (total, early and late apoptosis) ([8]; HepG2, 10.0 µM): 46.45 ± 0.78%; bioavailability [9]: 38–49%; Cell morphology changes of HepG2 [10]: cell morphology changes (shrink and smaller in size) were observed after treating HepG2 with Sorafenib at 5.0 µM and 10.0 µM; IC50 [6]: 5.97 ± 0.71 µM
